Usually inhibition stands for the drop in the measured response relative to a control, in per cent. One may read the IC50 as the midpoint of a concentration-inhibition curve.

These results are taken from ChEMBL document CHEMBL3779803, “α-Glucosidase Inhibitory Prenylated Anthranols from Harungana madagascariensis” (J Nat Prod, 2016).

The first test deals with Saccharomyces cerevisiae. Description: Inhibition of Saccharomyces cerevisiae alpha-glucosidase at 5 uM using p-nitrophenyl-alpha-D-glucoside as substrate measured for 40 mins by spectrophotometric analysis.
For `CC(C)=CCc1c(C)cc2cc3c(c(O)c2c1O)C(=O)C=C(O)C3(CC=C(C)C)CC=C(C)C`, the inhibition was determined as 47%.

Target in another test: not listed separately
Description: Inhibition of Saccharomyces cerevisiae alpha-glucosidase using p-nitrophenyl-alpha-D-glucoside as substrate measured for 40 mins by spectrophotometric analysis.
The compound `CC(C)=CCc1c(C)cc2cc3c(c(O)c2c1O)C(=O)C(CC1=C(O)C(CC=C(C)C)(CC=C(C)C)c2cc4cc(C)c(CC=C(C)C)c(O)c4c(O)c2C1=O)=C(O)C3(CC=C(C)C)CC=C(C)C` registered an IC50 of 1.2 µM.
The same measure, in the same setting: the value for `Cc1cc(O)c2c3c1[C@H](O)[C@@H]1O[C@]3(OC1(C)C)c1c3c(cc(O)c1C2=O)O[C@@H](C(C)(C)O)C3` was 117 µM; that for `CC(C)=CCc1c(C)cc(O)c2c1[C@@H](O)c1c3c(cc(O)c1C2=O)OC(C)(C)[C@@H](O)C3` was 36.9 µM; that for `CC(C)=CCc1c(C)cc(O)c2c1C(O)c1c(CC=C(C)C)c(O)cc(O)c1C2=O` (stereo not drawn) was 44.1 µM.
On the same count and under the same terms, the value for `C[C@@H]1O[C@@H](O[C@@H]2[C@@H](O)[C@H](O)[C@H](O[C@H]3[C@H](O)[C@@H](O)C(O)O[C@@H]3CO)O[C@H]2CO)[C@@H](O)[C@H](O)[C@H]1N[C@H]1C=C(CO)[C@@H](O)[C@H](O)[C@H]1O` (stereo partly drawn) was 120 µM; that for `CC(C)=CCc1c(C)cc(O)c2c(O)c3c(cc12)C(CC=C(C)C)(CC=C(C)C)C(O)=CC3=O` [HARUNGANIN] was 37.7 µM.
In the case of `CC(C)=CCc1c(C)cc(O)c2c1[C@@H](O)c1c3c(cc(O)c1C2=O)O[C@@H](C(C)(C)O)C3`, the IC50 was 207 µM.
